Measurements reported in patent US20080249174A1, “Animal Model for Studying Atherosclerotic Lesions” (THE RESEARCH FOUNDATION OF STATE UNIVERSITY OF NEW YORK, priority 2005, published 2008).
Marks after values point to notes of the source that are not given here.

Tests used:
[1] = tested on: CIP.choline-phosphate cytidylyltransferase (CT); conditions: administration of L-cycloserine; cited from earlier work
SPT = target: T1, SPT (Mus musculus, UniProt O35704+P97363); assay: SPT activity in liver of myriocin-treated apoE KO mice; assay type: in vivo; conditions: myriocin 0.3 mg/kg intraperitoneally every other day for 8 weeks
T1 construct: myriocin treated mice had 50% less SPT activity in the liver than the controls; from tissue; host or cells: liver of apoE KO mice (The Jackson Laboratory) treated in vivo with myriocin
T1 sequence (O35704 1-473): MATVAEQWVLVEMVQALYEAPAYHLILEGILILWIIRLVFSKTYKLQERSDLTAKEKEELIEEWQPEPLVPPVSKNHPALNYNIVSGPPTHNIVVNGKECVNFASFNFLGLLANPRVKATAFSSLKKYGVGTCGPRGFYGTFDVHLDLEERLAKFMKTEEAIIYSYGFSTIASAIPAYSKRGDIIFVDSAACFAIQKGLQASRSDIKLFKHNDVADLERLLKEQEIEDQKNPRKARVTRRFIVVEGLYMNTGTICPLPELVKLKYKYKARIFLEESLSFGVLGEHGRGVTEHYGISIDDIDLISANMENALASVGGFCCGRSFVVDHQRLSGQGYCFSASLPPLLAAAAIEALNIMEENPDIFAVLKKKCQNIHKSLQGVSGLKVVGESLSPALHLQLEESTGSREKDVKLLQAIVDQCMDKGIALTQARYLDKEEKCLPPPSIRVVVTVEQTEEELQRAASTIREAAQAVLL
T1 sequence (P97363 1-560): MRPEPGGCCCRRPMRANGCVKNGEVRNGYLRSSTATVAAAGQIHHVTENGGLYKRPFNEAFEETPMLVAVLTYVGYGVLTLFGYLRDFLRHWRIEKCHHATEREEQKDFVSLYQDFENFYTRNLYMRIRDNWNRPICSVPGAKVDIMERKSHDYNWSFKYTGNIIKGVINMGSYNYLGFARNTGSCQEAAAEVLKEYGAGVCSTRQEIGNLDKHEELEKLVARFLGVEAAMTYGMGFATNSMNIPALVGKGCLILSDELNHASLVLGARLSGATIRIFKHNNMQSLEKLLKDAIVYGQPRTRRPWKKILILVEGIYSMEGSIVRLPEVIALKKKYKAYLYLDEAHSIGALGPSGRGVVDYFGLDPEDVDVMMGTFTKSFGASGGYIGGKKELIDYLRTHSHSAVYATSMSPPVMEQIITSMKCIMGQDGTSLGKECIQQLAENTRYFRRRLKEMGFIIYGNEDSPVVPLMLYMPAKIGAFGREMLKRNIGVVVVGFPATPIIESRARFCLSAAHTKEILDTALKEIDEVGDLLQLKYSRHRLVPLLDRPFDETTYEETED
T1 sequence (Q8R207 1-71 partner): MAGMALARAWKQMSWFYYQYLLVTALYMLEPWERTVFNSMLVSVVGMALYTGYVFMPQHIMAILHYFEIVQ
Procedure: Each mRNA level was expressed as a ratio to β-Actin mRNA. Liver tissues from Sptlc1 and Sptlc2-deficient, as well as wild type, mice were homogenized, and SPT activity was measured with ^3H-serine and palmitoyl-coenzyme A for substrates, as previously described (15).
(§1) Eight-week-old apoE KO micewere purchased from The Jackson Laboratory (Bar Harbor, Me.). Myriocin (0.3 mg/kg) (Biomol Research Laboratories Inc.) or phosphate buffered saline was injected intraperitoneally every other day for 8 weeks. The animals were on Purina Rodent Chow (catalog number 5001) or a high fat, high cholesterol diet (20% milk fat and 0.15% cholesterol; Harlan Teklad, Madison, Wis.).
In the present invention, two groups of 8-week-old apoE KO mice were utilized. Group 1 (n=7) and group 2 (n=7) animals were injected with 100 μl of myriocin (0.3 mg/kg) or phosphate-buffered saline, respectively, every other day for 8 weeks. As expected, myriocin treated mice had 50% less SPT activity in the liver than the controls.

apoE KO mice [2] = assay: Plasma lipid measurement after myriocin administration; assay type: in vivo, mouse; conditions: for Plasma PC: PC = total phospholipid minus SM; for Plasma SM: n=7; for PC/SM ratio increased / plasma PC levels increased / plasma SM levels decreased: vs control; for PC/SM ratio increased / plasma PC levels increased: p<0.0001
Procedure: as §1
(§2) Fasting plasma was collected for fast protein liquid chromatography (FPLC) separation and lipid measurement. Total cholesterol, phospholipids and triglyceride inplasma, and lipoproteins were assayed by enzymatic methods (WakoPure Chemical Industries Ltd., Osaka, Japan). Plasma sphingomyelin was measured as described previously (JBC13). PC concentration was obtained by subtracting SM from total phospholipid concentration. Apolipoprotein analysis using SDS-PAGE was also done as describedpreviously (JBC 14).

apoE KO mice [3] = assay: Plasma sphingolipid analysis by mass spectrometry after myriocin administration; assay type: in vivo, mouse; conditions: for Plasma C14Cer / Plasma C16Cer / Plasma C18:1Cer / Plasma C18Cer / Plasma C20Cer / Plasma C24:1Cer / Plasma C24Cer / Plasma DHSph / Plasma DHSph-1P / Plasma S1P / Plasma Sph: myriocin 0.3 mg/kg i.p. 8 weeks, n=7
Procedure: as §1
Plasma sphingosinebases, sphingoid base-1-phosphates, and ceramide species were performed on a Thermo Finnigan TSQ 7000 triple quadrupole mass spectrometer operating in a multiple reaction monitoring, positive ionization mode at the Department of Biochemistry and Molecular Biology, Medical University of South Carolina, on a fee-for-service basis. Briefly, 250 μl of mouse plasma was fortified with the internal standards (IC17 base D-erythro-sphingosine (17C-Sph), C17 sphingosine-1-phosphate (17C—S1P), N-palmitoyl-D-erythro-C13 sphingosine (13C-Cer), and heptadecanoyl-D-erythro-sphingosine (C17-Cer)) and extracted with ethyl acetate/iso-propanol/water (60:30:10) (v/v) solvent system. After evaporation and reconstitution in 100 μl of methanol, samples were injected onto the Surveyor/TSQ 7000 liquid chromatography/mass spectrometry system, and gradient was eluted from a BDSHypersil C8, 150×3.2-mm, 3-μm particle size column with a 1 mM methanolic ammonium formate, 2 mM aqueous ammonium formate mobile phase system. Peaks corresponding to the target analytes and internal standards were collected and processed using the Xcalibur software system. Quantitative analysis was based on the calibration curves generated by spiking an artificial matrix with the known amounts of the target analyte synthetic standards and an equal amount of the internal standards. The target analyte/internal standard peak area ratios were plotted against analyte concentration. The target analyte/internal standard peak area ratios from the samples were similarly normalized to their respective internal standards and compared with the calibration curves using a linear regression model.

apoE KO mice [4] = assay: FPLC lipid distribution among lipoproteins with or without myriocin; assay type: in vivo, mouse
Procedure: Aliquots of 200 μl of pooled plasma from mice (n=7) with or without myriocin treatment were analyzed by FPLC (V, VLDL; L, LDL; and H, HDL). An aliquot of each fraction was used for the determination of SM (FIG. 6A), PC (FIG. 6B), and cholesterol (FIG. 6C).
Aliquots of 200 μl of pooled plasma from mice (n=7) with or without myriocin treatment were analyzed by FPLC (V, VLDL; L, LDL; and H, HDL). An aliquot of each fraction was used for the determination of SM (FIG. 7A), PC (FIG. 7B), and cholesterol (FIG. 7C).
as §2
To investigate the lipid distribution among the lipoproteins with or without myriocin treatment, FPLC was utilized to fractionize lipoproteins and measured SM, PL, and cholesterol in each fraction.

apoE KO mice [5] = assay: Apolipoprotein analysis using SDS-PAGE; assay type: in vivo, mouse
Procedure: as §2

apoE KO mice [6] = assay: Atherosclerotic lesions: aorta root assay and en face assay; assay type: in vivo, mouse; conditions: 2 months of myriocin administration, p<0.01; for reduction in mean whole aortic lesion areas compared with controls: en face; for reduction in mean proximal aortic lesion areas compared with controls: root assay
From the text: This set of pictures is representative of seven sets. FIGS. 8B and 8C depict quantification of atherosclerotic lesions in the proximal aorta by root assay in mice fed a chow diet (FIG. 8B) or a high fat, high cholesterol diet (FIG. 8C). The procedure for root assay was described previously (JBC 15). FIGS. 8D and 8E depict quantification of atherosclerotic lesions in whole aorta by en face analysis in mice fed a chow diet (FIG. 8D) or a high fat, high cholesterol diet (FIG. 8E). The procedure for en face analysis was described previously (JBC 16). Values are mean ±S.D. *, p<0.001; n=7.
At the end of the myriocin treatment period, the mice were sacrificed, and the hearts and proximal aortas as well as the whole aortas were removed, dissected, and photographed. An aorta root assay and an en face assay were performed as described previously (JBC 15, 16).

T-lymphocyte populations = conditions: myriocin 1 mg/kg (but not 0.3 mg/kg); cited from earlier work
[7] = cited from earlier work
apoE KO mice [8] = conditions: oral myriocin, high cholesterol diet; cited from earlier work
[9] = chow diet, myriocin 0.3 mg/kg i.p. 8 weeks
[10] = high fat diet, myriocin 0.3 mg/kg i.p. 8 weeks
[11] = high fat, high cholesterol (Western type) diet 8 weeks
[12] = high fat, high cholesterol diet
[13] = chow diet, pooled plasma n=7, FIG. 6
[14] = high fat diet, pooled plasma n=7, FIG. 7

Structure (SMILES): N[C@@H]1CON=C1O [L-cycloserine]
- stimulation of CT activity [1]: 74%

Structure (SMILES): CCCCCCC(=O)CCCCCC/C=C/C[C@@H](O)[C@H](O)[C@@](N)(CO)C(=O)O [Myriocin, myriocin]
- less SPT activity in the liver than the controls (SPT): 50%
- total cholesterol levels, change after myriocin (apoE KO mice [2]; chow diet): not significantly changed
- triglyceride levels, change after myriocin (apoE KO mice [2]; chow diet): not significantly changed
- PC/SM (apoE KO mice [2]; [9]): 12.1 ± 0.2a
- Plasma Chol (apoE KO mice [2]; [9]): 660 ± 105 mg/dL
- Plasma TG (apoE KO mice [2]; [9]): 75 ± 19 mg/dL
- Plasma PC (apoE KO mice [2]; [9]): 399 ± 59^a mg/dl
- Plasma SM (apoE KO mice [2]; chow diet, myriocin 0.3 mg/kg i.p. every other day 8 weeks, mean ± S.D.): 33 ± 3^a mg/dl
- PC/SM ratio increased (apoE KO mice [2]; chow diet): 317%
- plasma PC levels increased (apoE KO mice [2]; chow diet): 91%
- plasma SM levels decreased (apoE KO mice [2]; chow diet, p<0.001): 54%
- PC/SM (apoE KO mice [2]; [10]): 16.9
- Plasma Chol (apoE KO mice [2]; [10]): 1807 ± 342 mg/dL
- Plasma TG (apoE KO mice [2]; [10]): 107 ± 27 mg/dL
- Plasma SM (apoE KO mice [2]; [10]): 47 ± 14^a mg/dl
- Plasma PC (apoE KO mice [2]; [10]): 795 ± 97^a mg/dl
- plasma SM levels decreased (apoE KO mice [2]; [11]): 59%
- PC/SM ratio increased (apoE KO mice [2]; [11]): 380%
- plasma PC levels increased (apoE KO mice [2]; [11]): 100%
- total cholesterol levels, change after myriocin (apoE KO mice [2]; [12]): not significantly changed
- triglyceride levels, change after myriocin (apoE KO mice [2]; [12]): not significantly changed
- plasma Cer, change after myriocin treatment (apoE KO mice [3]; chow diet): significantly decreased
- plasma S1P, change after myriocin treatment (apoE KO mice [3]; chow diet): significantly decreased
- plasma Sph, change after myriocin treatment (apoE KO mice [3]; chow diet): significantly decreased
- Plasma C14Cer (apoE KO mice [3]; chow diet): 12 ± 2^a nM
- Plasma C16Cer (apoE KO mice [3]; chow diet): 11 ± 3^a nM
- Plasma C18:1Cer (apoE KO mice [3]; chow diet): 2 ± 1^a nM
- Plasma C18Cer (apoE KO mice [3]; chow diet): 51 ± 8^a nM
- Plasma C20Cer (apoE KO mice [3]; chow diet): 35 ± 9^a nM
- Plasma C24:1Cer (apoE KO mice [3]; chow diet): 854 ± 144^a nM
- Plasma C24Cer (apoE KO mice [3]; chow diet): 1321 ± 22^a nM
- Plasma DHSph (apoE KO mice [3]; chow diet): 30 ± 3 nM
- Plasma DHSph-1P (apoE KO mice [3]; chow diet): 9 ± 5^a nM
- Plasma S1P (apoE KO mice [3]; chow diet): 58 ± 9^a nM
- Plasma Sph (apoE KO mice [3]; chow diet): 127 ± 8^a nM
- Plasma S1P (apoE KO mice [3]; chow diet, listed as myriocin): < 100 nM
- Plasma C14Cer (apoE KO mice [3]; high fat diet): 20 ± 2 nM
- Plasma C16Cer (apoE KO mice [3]; high fat diet): 12 ± 6^a nM
- Plasma C18:1Cer (apoE KO mice [3]; high fat diet): 9 ± 1^a nM
- Plasma C18Cer (apoE KO mice [3]; high fat diet): 36 ± 14^a nM
- Plasma C20Cer (apoE KO mice [3]; high fat diet): 45 ± 11^a nM
- Plasma C24:1Cer (apoE KO mice [3]; high fat diet): 1009 ± 134^a nM
- Plasma C24Cer (apoE KO mice [3]; high fat diet): 1708 ± 426^a nM
- Plasma DHSph (apoE KO mice [3]; high fat diet): 20 ± 1^a nM
- Plasma DHSph-1P (apoE KO mice [3]; high fat diet): 10 ± 2^a nM
- Plasma S1P (apoE KO mice [3]; high fat diet): 42 ± 19^a nM
- Plasma Sph (apoE KO mice [3]; high fat diet): 114 ± 19^a nM
- plasma Cer, change after myriocin treatment (apoE KO mice [3]; [12]): dramatically decreased
- plasma S1P, change after myriocin treatment (apoE KO mice [3]; [12]): dramatically decreased
- plasma Sph, change after myriocin treatment (apoE KO mice [3]; [12]): dramatically decreased
- PC in FPLC lipoprotein fractions (apoE KO mice [4]; [13]): increased
- SM in FPLC lipoprotein fractions (apoE KO mice [4]; [13]): significantly decreased
- cholesterol in FPLC lipoprotein fractions (apoE KO mice [4]; [13]): no significant effect
- PC in FPLC lipoprotein fractions (apoE KO mice [4]; [14]): increased
- SM in FPLC lipoprotein fractions (apoE KO mice [4]; [14]): dramatically decreased
- cholesterol in FPLC lipoprotein fractions (apoE KO mice [4]; [14]): no effect
- levels of apolipoproteins, including apoB100, apoB48, and apoA-I (apoE KO mice [5]; chow diet): no significant changes
- levels of apolipoproteins, including, apoB48, and apoA-I (apoE KO mice [5]; [12]): no significant changes
- reduction in mean whole aortic lesion areas compared with controls (apoE KO mice [6]; Western type diet): 37%
- reduction in mean proximal aortic lesion areas compared with controls (apoE KO mice [6]; Western type diet): 39%
- reduction in mean whole aortic lesion areas compared with controls (apoE KO mice [6]; chow diet): 36%
- reduction in mean proximal aortic lesion areas compared with controls (apoE KO mice [6]; chow diet): 42%
- effect on T-lymphocyte populations in mice (T-lymphocyte populations): reduces T-lymphocyte populations
- toxicity of oral administration [7]: serious gastrointestinal toxicity
- atherosclerotic lesions (apoE KO mice [8]): dramatic reduction
- plasma SM levels (apoE KO mice [8]): significant reduction
- plasma cholesterol levels (apoE KO mice [8]): significant reduction
